IC50 data for two compounds are collected here from patent US4816486A, “Amide derivatives and 5-lypoxygenase inhibitors containing the same” (Terumo Corporation, priority 1985, dated 1989).

The assay has as its target T1, 5-lypoxygenase (Mus musculus, UniProt P48999).
T1 construct: The supernatant was used as the 5-lypoxygenase enzyme solution; endogenous in cells; host or cells: mouse mastocytoma P815 cells (supernatant of sonicated cells)
T1 sequence (P48999 1-674): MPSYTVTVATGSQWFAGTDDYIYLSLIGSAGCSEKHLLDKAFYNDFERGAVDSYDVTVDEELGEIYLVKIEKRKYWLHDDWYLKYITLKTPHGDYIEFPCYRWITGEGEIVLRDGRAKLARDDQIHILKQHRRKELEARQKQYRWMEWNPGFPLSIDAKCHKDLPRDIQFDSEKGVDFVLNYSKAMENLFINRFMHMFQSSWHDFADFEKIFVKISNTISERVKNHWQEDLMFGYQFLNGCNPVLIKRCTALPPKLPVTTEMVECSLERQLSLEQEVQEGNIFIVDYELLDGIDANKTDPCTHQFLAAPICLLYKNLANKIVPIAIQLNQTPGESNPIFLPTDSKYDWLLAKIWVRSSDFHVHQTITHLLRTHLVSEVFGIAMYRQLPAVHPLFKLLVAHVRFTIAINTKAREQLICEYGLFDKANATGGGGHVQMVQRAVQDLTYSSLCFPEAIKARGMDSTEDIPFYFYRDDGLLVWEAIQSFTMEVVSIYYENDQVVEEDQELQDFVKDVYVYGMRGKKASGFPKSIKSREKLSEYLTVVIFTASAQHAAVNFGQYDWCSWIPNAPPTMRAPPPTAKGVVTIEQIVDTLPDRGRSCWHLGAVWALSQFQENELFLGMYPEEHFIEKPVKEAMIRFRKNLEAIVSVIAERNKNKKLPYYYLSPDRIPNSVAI
Put plainly: 5-Lypoxygenase-inhibiting activity (formation of 5-HETE and LTB4 from radiolabelled arachidonic acid, supernatant of sonicated mouse mastocytoma P815 cells). The format is biochemical. To be noted: inhibition of formation of 5-HETE and LTB4; 37° C., 5 min; pH 7.4 phosphate buffer; P815 cell supernatant; indomethacine present; read-out: 50% inhibitory concentration IC50. The procedure: Mouse mastocytoma cells, strain P815 were diluted in a medium containing 90% of the Eagle basal medium (manufactured by Gibco Laboratories) to a cencentration of 5×10^4 cells/ml. The diluted liquor was subjected to shake culture in air at 37° C. for 48 hours. The culture liquor was cooled with ice and centrifuged to collect the cells. The cells were re-suspended in a phosphate buffer solution at pH 7.4 to a concentration of 2×10^7 cells/ml. The suspension was treated in an ultrasonic cell fragmenting machine and then centrifuged at […] for 10 min. The supernatant was used as the 5-lypoxygenase enzyme solution. To a test tube in which 20 μl of radiolabelled arachidonic acid (10 μ curies/ml), indomethacine ([…]) and an amide derivative of the invention to be tested were placed 0.45 ml of phosphate buffer solution, 0.45 ml of the above-prepared enzyme solution and 0.1 ml of 8 mM CaCl2 (calcium chloride) solution. The mixture was reacted at 37° C. for 5 min. […] Determination of the inhibitory activity was made by collecting the portion corresponding to 5-HBTE (5-(s)-hydroxy-6,8,11,14-eicosatetraenic acid) and LTB4 (leucotriene B4), which were 5-lypoxygenase products as detected with a radio-thin layer scanner (Dunnschicht-scanner II LB 2723 manufactured by Berthold), and measuring the radioactivity by means of a scintillation counter. […]

pIC50: −log10 of the molar value.

Turning to `COc1cc(/C=C/C(=O)Nc2c(Br)cc(Br)cc2CN(C)C2CCCCC2)ccc1O` [Example 1, N-cyclohexyl-N-methyl-(2-(3-(3-methoxy-4-hydroxyphenyl)-2-propenoylamino)-3,5-dibromobenzyl)amine], the pIC50 was 5.40. As to `COc1cc(/C=C/C=C/C(=O)Nc2c(Br)cc(Br)cc2CN(C)C2CCCCC2)ccc1O` [Example 2, N-cyclohexyl-N-methyl-(2-(5-(3-methoxy-4-hydroxyphenyl)2,4-pentadienoylamino)-3,5-dibromobenzyl)amine], the pIC50 is 6.52.
